In patent publication US9936700B2, “Substituted quinoxaline derivatives as pest control agent” (BAYER CROPSCIENCE AKTIENGESELLSCHAFT, priority 2013, dated 2018):
Where two headings read alike, the source gives them in different places.

Tests used:
Aphis gossypii = Aphis gossypii spray test; format: in vivo; conditions: cotton plants, after 6 days
Procedure: Aphis gossypii—spray test
(§1) • Solvent: 7 parts by weight of dimethylformamide • Emulsifier: alkylaryl polyglycol ether
(§2) To produce further test concentrations, the preparation is diluted with emulsifier-containing water. If the addition of ammonium salts or/and penetrants is required, these are each added in a concentration of 1000 ppm to the formulation solution.
After 6 days, the kill in % is determined. 100% means that all the aphids have been killed; 0% means that no aphids have been killed.

Tetranychus urticae = Tetranychus urticae spray test, OP-resistant (TETRUR); format: in vivo; conditions: 500 g/ha, bean leaf discs, after 6 days
Procedure: Tetranychus urticae—spray test, OP-resistant (TETRUR)
(§3) • Solvent: 78.0 parts by weight of acetone • 1.5 parts by weight of dimethylformamide • Emulsifier: 0.5 part by weight of alkylaryl polyglycol ether
After 6 days, the efficacy in % is determined. 100% means that all the spider mites have been killed; 0% means that no spider mites have been killed.

[1] = log P by reversed-phase HPLC (EEC Directive 79/831 Annex V.A8); format: physicochemical; conditions: for chromatographic logP: reversed-phase C18 HPLC column
Excerpt: NMR data and log P values: log P (HCOOH)=log P[a] log P (neutral)=log P[b]
^[a] […] Called log P (HCOOH) in the table.
^[b] […] Called log P (neutral) in the table.

Nilaparvata lugens = Nilaparvata lugens spray test (solvent dimethylformamide, 7 days); format: in vivo; conditions: rice plants, after 7 days
Procedure: Nilaparvata lugens—spray test
If the addition of ammonium salts or/and penetrants is required, these are each added in a concentration of 1000 ppm to the formulation solution.
After 7 days, the efficacy in % is determined.

Myzus persicae = Myzus persicae spray test (MYZUPE); format: in vivo; conditions: Chinese cabbage leaf discs, after 6 days
Procedure: Myzus persicae—spray test (MYZUPE)
• Solvent: 78 parts by weight of acetone • 1.5 parts by weight of dimethylformamide • Emulsifier: 0.5 part by weight of alkylaryl polyglycol ether
After 6 days, the efficacy in % is determined. 100% means that all the aphids have been killed; 0% means that no aphids have been killed.

Haemonchus contortus = Haemonchus contortus test (HAEMCO); format: in vivo; conditions: 20 ppm, after 5 days
Excerpt: Haemonchus contortus-test ([…]) • Solvent: dimethyl sulfoxide […] Vessels containing the active compound preparation of the desired concentration are populated with about 40 larvae of the red stomach worm (Haemonchus contortus).

Bemisia tabaci = Bemisia tabaci spray test; format: in vivo; conditions: 100 ppm, cotton plants, after 8 days
Procedure: Bemisia Tabaci—Spray Test
as §1, §2
After 8 days, the efficacy in % is determined. 100% means that all the whiteflies have been killed; 0% means that none of the whiteflies have been killed.

Phaedon cochleariae = Phaedon cochleariae spray test (PHAECO); format: in vivo; conditions: 500 g/ha, Chinese cabbage leaf discs, after 7 days
Procedure: Phaedon cochleariae—spray test (PHAECO)
as §3
After 7 days, the efficacy in % is determined. 100% means that all the beetle larvae have been killed; 0% means that no beetle larvae have been killed.

[2] = acidic range, pH 2.7, 0.1% aqueous formic acid/acetonitrile, read-out: logP [a] = log P (HCOOH)
[3] = neutral range, pH 7.8, aqueous ammonium hydrogencarbonate/acetonitrile, read-out: logP [b] = log P (neutral)
[4] = acidic range, pH 2.7, 0.1% aqueous formic acid/acetonitrile

Row | Structure (SMILES) | efficacy (spider mites killed) (Tetranychus urticae) [%] | logP [a] = log P (HCOOH) ([1]; pH 2.7) | logP [a] = log P (HCOOH) [1, 4] | further results
1 | CCc1cnccc1-c1cnc2cc3c(cc2n1)OC(F)(F)O3 [Example I-1, 6-(3-Ethylpyridin-4-yl)-2,2-difluoro[1,3]dioxolo[4,5-g]quinoxaline] | 100 |  |  | efficacy (kill of aphids) (Aphis gossypii; 20 ppm): 85%; chromatographic logP [1, 2]: 2.34; chromatographic logP [1, 3]: 3.23; efficacy (planthoppers killed) (Nilaparvata lugens; 20 ppm): 100%; efficacy (aphids killed) (Myzus persicae; 500 g/ha): 90%
2 | FC1(F)Oc2cc3nc(Cl)c(-c4ccc(Cl)cc4)nc3cc2O1 [Example I-4, 6-Chloro-7-(4-chlorophenyl)-2,2-difluoro[1,3]dioxolo[4,5-g]quinoxaline] |  |  |  | chromatographic logP [1, 2]: 5.27; efficacy (kill of larvae) (Haemonchus contortus): 80%
3 | FC(F)(F)c1ccc2nc(-c3ccncc3Cl)cnc2c1 [Example I-10] |  | 3.27 |  | efficacy (kill of aphids) (Aphis gossypii; 20 ppm): 85%; efficacy (aphids killed) (Myzus persicae; 100 g/ha): 100%
4 | COc1cnccc1-c1cnc2cc(C(F)(F)F)ccc2n1 [Example I-11] |  | 2.59 |  | efficacy (kill of aphids) (Aphis gossypii; 100 ppm): 100%; efficacy (whiteflies killed) (Bemisia tabaci): 100%; efficacy (planthoppers killed) (Nilaparvata lugens; 100 ppm): 90%; efficacy (aphids killed) (Myzus persicae; 750 g/ha): 90%
5 | FC(F)(F)c1ccc2nc(-c3cncnc3)cnc2c1 [Example I-12] | 90 | 2.33 |  | 
6 | FC(F)(F)c1ccc2nc(-c3ccccn3)cnc2c1 [Example I-18] | 90 |  | 3.72 | logP [b] = log P (neutral) ([1]; neutral range, pH 7.8, aqueous ammonium hydrogencarbonate/acetonitrile): 3.75; efficacy (aphids killed) (Myzus persicae; 500 g/ha): 90%
7 | FC(F)(F)c1ccccc1-c1cnc2cc(Cl)ccc2n1 [Example I-21] | 100 | 4.17 |  | 
8 | CSc1ccccc1-c1cnc2cc(Cl)ccc2n1 [Example I-22] |  | 4.08 |  | efficacy (aphids killed) (Myzus persicae; 500 g/ha): 90%
9 | CCOc1ncccc1-c1cnc2cc(C(F)(F)F)ccc2n1 [Example I-24] | 100 | 4.59 |  | 
10 | FC(F)(F)c1ccc2nc(-c3ccc(Cl)cc3)cnc2c1 [Example I-25] | 90 |  | 4.99 | 
11 | CCc1cnccc1-c1cnc2cc(C(F)(F)F)ccc2n1 [Example I-26] | 90 | 2.53 |  | logP [b] = log P (neutral) ([1]; pH 7.8): 3.28; efficacy (whiteflies killed) (Bemisia tabaci): 96%; efficacy (planthoppers killed) (Nilaparvata lugens; 100 ppm): 80%
12 | CCc1cnccc1-c1cnc2ccc(C(F)(F)F)cc2n1 [Example I-27] | 90 |  |  | 
13 | Cc1cnccc1-c1cnc2ccc(C(F)(F)F)cc2n1 [Example I-30] |  | 2.12 |  | efficacy (kill of aphids) (Aphis gossypii; 100 ppm): 100%; logP [b] = log P (neutral) ([1]; pH 7.8): 2.89; efficacy (whiteflies killed) (Bemisia tabaci): 100%; efficacy (planthoppers killed) (Nilaparvata lugens; 100 ppm): 80%
14 | CC[S+]([O-])c1ccccc1-c1cnc2cc(Cl)ccc2n1 (stereo not shown) [Example I-31] |  | 2.66 |  | logP [b] = log P (neutral) ([1]; pH 7.8): 2.65; efficacy (aphids killed) (Myzus persicae; 500 g/ha): 90%
15 | CCSc1ccccc1-c1cnc2cc3c(cc2n1)OC(F)(F)O3 [Example I-34] | 90 | 4.73 |  | efficacy (beetle larvae killed) (Phaedon cochleariae): 100%
16 | Cc1ccsc1-c1cnc2ccc(C(F)(F)F)cc2n1 [Example I-43] | 90 | 4.65 |  | logP [b] = log P (neutral) ([1]; pH 7.8): 4.66
17 | Cc1ccccc1-c1cnc2cc(C(F)(F)F)ccc2n1 [Example I-46] | 90 |  | 4.48 | 
18 | Cc1ccsc1-c1cnc2cc(C(F)(F)F)ccc2n1 [Example I-48] | 90 | 4.67 |  | 
19 | Cc1ccc(-c2cnc3ccc(C(F)(F)F)cc3n2)c(F)c1 [Example I-51] | 100 | 4.97 |  | 
20 | CCSc1ccccc1-c1cnc2cc(C#N)ccc2n1 [Example I-57] |  | 3.60 |  | logP [b] = log P (neutral) ([1]; pH 7.8): 3.55

Row | Structure (SMILES) | efficacy (spider mites killed) (Tetranychus urticae) [%] | logP [a] = log P (HCOOH) ([1]; pH 2.7) | logP [a] = log P (HCOOH) [1, 4] | further results
21 | FC(F)(F)c1ccc2nc(-c3ccncc3)c(-c3ccncc3)nc2c1 [Example I-58] |  |  | 2.06 | 
22 | CCSc1ccccc1-c1nc2cc3c(cc2nc1-c1ccc(Cl)cc1)OC(F)(F)O3 [Example I-59] |  |  | 6.23 | 
23 | Cc1nc2cc(C(F)(F)F)ccc2nc1-c1cccnc1 [Example I-60] |  |  | 2.39 | 
24 | N#Cc1ccc2nc(-c3ccncc3)cnc2c1 [Example I-61] |  |  | 1.19 | 
25 | COc1cnccc1-c1cnc2ccc(C(F)(F)F)cc2n1 [Example I-62] |  | 2.60 |  | efficacy (kill of aphids) (Aphis gossypii; 100 ppm): 97%; efficacy (aphids killed) (Myzus persicae; 100 g/ha): 90%
26 | Cc1cnccc1-c1cnc2cc(F)c(F)cc2n1 [Example I-63] |  | 1.55 |  | efficacy (aphids killed) (Myzus persicae; 500 g/ha): 90%
27 | Cc1cnccc1-c1nc2ccc(C(F)(F)F)cc2nc1-c1ccc(Cl)cc1 [Example I-64] |  |  | 4.03 | 
28 | Cc1cnccc1-c1nc2cc(F)c(F)cc2nc1C [Example I-65] |  | 1.58 |  | 
29 | Cc1cnccc1-c1nc2ccc(C(F)(F)F)cc2nc1C [Example I-66] | 90 |  | 2.15 | efficacy (kill of aphids) (Aphis gossypii; 100 ppm): 95%; efficacy (aphids killed) (Myzus persicae; 500 g/ha): 90%
30 | Cc1cnccc1-c1nc2cc3c(cc2nc1C)OC(F)(F)O3 [Example I-67] |  | 2.02 |  | 
31 | Cc1cnccc1-c1nc2cc(C(F)(F)F)ccc2nc1-c1ccc(Cl)cc1 [Example I-68] |  |  | 3.94 | 
32 | Clc1ccc2nc(-c3ccnc(Cl)c3)cnc2c1 [Example I-69] |  |  | 3.52 | 
33 | Fc1cc2ncc(-c3ccncc3Cl)nc2cc1F [Example I-70] |  | 2.72 |  | 
34 | Clc1cc2ncc(-c3ccncc3Cl)nc2cc1Cl [Example I-71] |  | 3.78 |  | 
35 | FC1(F)Oc2cc3ncc(-c4ccncc4Cl)nc3cc2O1 [Example I-72] |  | 3.24 |  | 
36 | Clc1cc2ncc(-c3ccncc3)nc2cc1Cl [Example I-73] |  |  | 2.53 | 
37 | O=c1cnc2cc(C(F)(F)F)ccc2[nH]1 [VIa-01, 6-(trifluoromethyl)quinoxalin-2(1H)-one] |  |  |  | chromatographic logP [1, 3]: 1.71
38 | O=c1cnc2ccc(C(F)(F)F)cc2[nH]1 [VIa-02, 7-(trifluoromethyl)quinoxalin-2(1H)-one] |  |  |  | chromatographic logP [1, 3]: 1.65
39 | O=c1cnc2cc3c(cc2[nH]1)OC(F)(F)O3 [VIa-03, 2,2-difluoro[1,3]dioxolo[4,5-g]quinoxalin-6(5H)-one] |  |  |  | chromatographic logP [1, 2]: 1.49; chromatographic logP [1, 3]: 1.33
40 | O=c1[nH]c2cc3c(cc2nc1-c1ccc(Cl)cc1)OC(F)(F)O3 [VIb-01, 7-(4-chlorophenyl)-2,2-difluoro [1,3]dioxolo [4,5-g]quinoxalin-6(5H)-one] |  |  |  | chromatographic logP [1, 2]: 2.96
